This is an account of results in patent publication US10800733B2, “Acetophenone compound, preparation method therefor, and application thereof in blood lipid regulation” (Shanghai Bioenergy Medicine Science & Technology Co., Ltd., priority 2017, dated 2020).

Molecules are shown by their SMILES.

For this experiment, the system named is hyperlipidemia of SD rats. The experiment in a line: Therapeutic effect on hyperlipidemia of SD rats (lipid emulsion model). Type of experiment: in vivo. To be noted: for HDL-C (high density lipoprotein) / LDL-C (low density lipoprotein) / TG (serum triglyceride) / CHO (serum cholesterol): 21 days of continuous administration with lipid emulsion, fasted 12 h, serum, X ± SD, 5 animals per group; for blood lipid-reducing effect (in words) / reduction ratio of cholesterol (blood lipid-reducing effect): 21 days; for blood lipid-reducing effect (in words): hyperlipidemic SD rats, as shown by Table 1; for reduction ratio of cholesterol (blood lipid-reducing effect): (CHO of Model group - CHO of pharmaceutical-administrated group)/CHO of Model group*100%. The protocol:
1. Therapeutic Effect on Hyperlipidemia of SD Rats
Preparation process of lipid emulsion: 500 g of lard oil was taken, placed in a container, and heated to melt. When the temperature rose to 100° C., 200 g of cholesterol was added. After complete dissolution, 20 g of propylthiouracil was further added. The resulted mixture was stirred well, and added with 500 ml of Tween 80 after dissolution, resulting in an oil phase. At the same time, 600 mL of distilled water and 400 mL of 1,2-propanediol were taken and heated to 60° C. in a water bath, and then was added with 40 g of sodium deoxycholate. The resulted mixture was stirred well until complete dissolution was achieved, so as to give an aqueous phase. The aqueous phase was added into the oil phase and mixed well to give a lipid emulsion.
Process for modeling: Animals were fed adaptively for 3 days. Then, according to the body weight, 5 animals were selected as control and the remaining animals were intragastrically administered with the lipid emulsion during 9:00 to 11:00 am every day with 1 mL/100 g body weight for 2 weeks. After fasted for 12 hours, 1 mL of blood was collected from the orbits of the animals, and was determined by Hitachi Automatic Biochemical Analyzer 7080 for serum cholesterol (CHO), triglyceride (TG), low density lipoprotein (LDL-C) and high density lipoprotein (HDL-C). The animals having 4-7 mmol/L of CHO were used in the experiments.
The animals were continued with the intragastric administration of the lipid emulsion, and at the same time, the pharmaceutical-administered groups were administrated with the corresponding doses of pharmaceuticals, while the Model group was administrated with an equal volume of the solvent. The animals were administrated with the lipid emulsion in the morning and pharmaceuticals in the afternoon. The animals were measured for the body weight every Monday, and were observed. After 21 days of continuous administration, the animals were fasted for 12 hours. Then, 1 mL of blood was collected from the orbits, and was determined by Hitachi Automated Biochemical Analyzer 7080 for serum cholesterol (CHO), triglyceride (TG), low density lipoprotein (LDL-C) and high density lipoprotein (HDL-C).
The controls used in this experiment comprised Compound A and Simvastatin (also referred to as Sim herein).
The formula for calculating the blood lipid-reducing effect is: (CHO of Model group —CHO of pharmaceutical-administrated group)/CHO of Model group*100%. […] In this experiment, the effects of the compounds obtained herein for regulating blood lipids can be determined by using the blood cholesterol reduction as the main indicator, with reference to the decrease of triglyceride.

Take `CC(=O)c1ccc(NC(=O)C(C)(C)CCCOc2cc(C)ccc2C)cc1` [Compound 01]: under “80 mg/kg”, the “HDL-C (high density lipoprotein)” value was 2.02 ± 0.27 mmol/L, the “LDL-C (low density lipoprotein)” value was 3.07 ± 1.25 mmol/L, the “TG (serum triglyceride)” value is on record as 0.47 ± 0.27 mmol/L and the “blood lipid-reducing effect (in words)” value is “significantly reduce the level of cholesterol”. The “reduction ratio of cholesterol (blood lipid-reducing effect)” value (shortened to “reduction ratio of cholesterol”) (80 mg/kg) was determined as 59.75%.
With `CC(=O)c1ccc(O)c(NC(=O)C(C)(C)CCCOc2cc(C)ccc2C)c1` [Compound 02], under “80 mg/kg”, the “CHO (serum cholesterol)” value worked out at 4.86 ± 1.08 mmol/L, the “HDL-C (high density lipoprotein)” value was 1.94 ± 0.49 mmol/L, the “LDL-C (low density lipoprotein)” value is 3.18 ± 0.71 mmol/L and the “TG (serum triglyceride)” value is 0.51 ± 0.19 mmol/L. Besides, under “80 mg/kg”, the “blood lipid-reducing effect (in words)” value is “significantly reduce the level of cholesterol” and the “reduction ratio of cholesterol” value worked out at 54.40%.
Consider `CC(=O)c1ccc(O)c(NC(=O)c2cccnc2)c1` [Compound 03], for which, under “80 mg/kg”, the “CHO (serum cholesterol)” value is recorded as 4.56 ± 1.24 mmol/L, the “HDL-C (high density lipoprotein)” value is 1.81 ± 0.27 mmol/L, the “LDL-C (low density lipoprotein)” value is 3.14 ± 1.06 mmol/L and the “TG (serum triglyceride)” value is on record as 0.71 ± 0.16 mmol/L. Besides, under “80 mg/kg”, the “blood lipid-reducing effect (in words)” value is given as “significantly reduce the level of cholesterol” and the “reduction ratio of cholesterol” value stood at 57.22%.
Regarding `CC(=O)c1ccc(NC(=O)C(C)(C)Oc2ccc(Cl)cc2)cc1` [Compound 04], where the note is “80 mg/kg”, the “CHO (serum cholesterol)” value stood at 4.90 ± 1.09 mmol/L, the “HDL-C (high density lipoprotein)” value was 2.00 ± 0.52 mmol/L, the “LDL-C (low density lipoprotein)” value is recorded as 3.27 ± 1.34 mmol/L and the “TG (serum triglyceride)” value was 0.50 ± 0.15 mmol/L. Moreover, under “80 mg/kg”, the “blood lipid-reducing effect (in words)” value is on record as “significantly reduce the level of cholesterol” and the “reduction ratio of cholesterol” value was 54.03%.
On to `CC(=O)c1ccc(O)c(OC(=O)c2cccnc2)c1` [Compound 05], for which, for the setting “80 mg/kg”, the “CHO (serum cholesterol)” value came to 4.63 ± 0.41 mmol/L, the “HDL-C (high density lipoprotein)” value stood at 1.95 ± 0.50 mmol/L, the “LDL-C (low density lipoprotein)” value is 3.12 ± 0.34 mmol/L and the “TG (serum triglyceride)” value was determined as 0.56 ± 0.23 mmol/L. For the setting “80 mg/kg”, the “blood lipid-reducing effect (in words)” value is given as “significantly reduce the level of cholesterol” and the “reduction ratio of cholesterol” value worked out at 56.56%.
As for `Cc1ccc(C)c(OCCCC(C)(C)C(=O)NCC(=O)c2ccc(O)cc2)c1` [Compound A, reference compound], for the setting “80 mg/kg”, the “CHO (serum cholesterol)” value was found to be 6.15 ± 2.12 mmol/L, the “HDL-C (high density lipoprotein)” value stood at 1.41 ± 0.28 mmol/L, the “LDL-C (low density lipoprotein)” value amounted to 4.97 ± 1.07 mmol/L and the “TG (serum triglyceride)” value was determined as 0.58 ± 0.11 mmol/L. In addition, the “reduction ratio of cholesterol” value (80 mg/kg) came out at 42.30%.
Consider `CCC(C)(C)C(=O)O[C@H]1C[C@@H](C)C=C2C=C[C@H](C)[C@H](CC[C@@H]3C[C@@H](O)CC(=O)O3)[C@H]21` [Sim, Simvastatin, reference compound], for which, under “10 mg/kg”, the “CHO (serum cholesterol)” value amounted to 6.28 ± 0.76 mmol/L, the “HDL-C (high density lipoprotein)” value is 1.65 ± 0.26 mmol/L, the “LDL-C (low density lipoprotein)” value is on record as 4.54 ± 0.36 mmol/L and the “TG (serum triglyceride)” value is 0.60 ± 0.07 mmol/L.
